Test results reported in US20260159511A1, “SMALL MOLECULE STING ANTAGONISTS” (CURADEV PHARMA PVT. LTD., priority 2021, published 2026).

These compounds were tested on IRF pathway in THP1-Dual™ cells, THP-1 (HAQ) (assay: Reporter gene expression assay in THP-1 cells (THP1-Dual, IRF pathway Lucia luciferase reporter, 2′,3′-cGAMP stimulation)). Settings: Homo sapiens; THP1-Dual cells preincubated with compound 10 minutes, stimulation with 5 μM 2′,3′-cGAMP for 20 hr, QUANTI-Luc readout of the supernatant; read-out: THP-1 (HAQ) Activity (IC50 value range).
Type: cell-based, human
Procedure, shortened: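 THP-1-derived THP1-Dual cells (5×10^4) preincubated with compound for 10 minutes, then stimulated with 5 μM 2′,3′-cGAMP. After 20 hr, secreted Lucia luciferase (IRF pathway reporter) measured in supernatant by luminescence.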

| Compound | IC50 [nM] |
| --- | --- |
| O=C(Nc1ccc2c(c1)N(Cc1cc(F)cc(Cl)c1)CCS2)Nc1c[nH]c2ccc(F)cc12 [Example 101, 1-(4-(3-chloro-5-fluorobenzyl)-3,4-dihydro-2H-benzo[b][1,4]thiazin-6-yl)-3-(5-fluoro-1H-indol-3-yl)urea] | < 1000 |
| C[C@H]1c2ccc(NC(=O)Nc3c[nH]c4ccccc34)cc2N(Cc2ccccc2)C(=O)N1C [Example 107, (S)-1-(1-Benzyl-3,4-dimethyl-2-oxo-1,2,3,4-tetrahydroquinazolin-7-yl)-3-(1H-indol-3-yl)urea] | < 1000 |
| C[C@H]1c2ccc(NC(=O)Nc3c[nH]c4ccccc34)cc2N(Cc2c(F)ccc(O)c2Cl)C(=O)N1C [Example 108, (S)-1-(1-(2-chloro-6-fluoro-3-hydroxybenzyl)-3,4-dimethyl-2-oxo-1,2,3,4-tetrahydroquinazolin-7-yl)-3-(1H-indol-3-yl)urea] | 1000 to 10000 |
| Cc1cc(CN2CCSc3ccc(NC(=O)Nc4c[nH]c5ccc(F)cc45)cc32)on1 [Example 110, 1-(5-fluoro-1H-indol-3-yl)-3-(4-((3-methylisoxazol-5-yl)methyl)-3,4-dihydro-2H-benzo[b][1,4]thiazin-6-yl)urea] | < 1000 |
| CC1CN(Cc2cc(F)cc(Cl)c2)c2cc(NC(=O)Nc3c[nH]c4ccc(F)cc34)ccc2S1 (stereo not drawn) [Example 111, 1-(4-(3-chloro-5-fluorobenzyl)-2-methyl-3,4-dihydro-2H-benzo[b][1,4]thiazin-6-yl)-3-(5-fluoro-1H-indol-3-yl)urea] | < 1000 |
| O=C(Nc1ccc2c(c1)N(Cc1ccccc1)C(=O)CS2)Nc1c[nH]c2ccc(Br)cc12 [Example 112, 1-(4-benzyl-3-oxo-3,4-dihydro-2H-benzo[b][1,4]thiazin-6-yl)-3-(5-bromo-1H-indol-3-yl)urea] | < 1000 |

Second part, the compound after the results:

| IC50 [nM] | Compound |
| --- | --- |
| < 1000 | Cc1nc(N2CCSc3ccc(NC(=O)Nc4c[nH]c5ccccc45)cc32)ccc1F [Example 102, 1-(4-(5-Fluoro-6-methylpyridin-2-yl)-3,4-dihydro-2H-benzo[b][1,4]thiazin-6-yl)-3-(1H-indol-3-yl)urea] |
| < 1000 | O=C(Nc1ccc2c(c1)N(c1ccccc1)CCS2)Nc1c[nH]c2ccccc12 [Example 103, 1-(1H-indol-3-yl)-3-(4-phenyl-3,4-dihydro-2H-benzo[b][1,4]thiazin-6-yl)urea] |
| < 1000 | O=C(Nc1ccc2c(c1)SCCN2c1ccccc1)Nc1c[nH]c2ccccc12 [Example 104, 1-(1H-indol-3-yl)-3-(4-phenyl-3,4-dihydro-2H-benzo[b][1,4]thiazin-7-yl)urea] |
| < 1000 | O=C(Nc1ccc2c(c1)N(c1ccccn1)CCS2)Nc1c[nH]c2ccccc12 [Example 105, 1-(1H-indol-3-yl)-3-(4-(pyridin-2-yl)-3,4-dihydro-2H-benzo[b][1,4]thiazin-6-yl)urea] |
| < 1000 | O=C(Nc1ccc2c(c1)N(c1cccc(F)n1)CCS2)Nc1c[nH]c2ccccc12 [Example 106, 1-(4-(6-fluoropyridin-2-yl)-3,4-dihydro-2H-benzo[b][1,4]thiazin-6-yl)-3-(1H-indol-3-yl)urea] |
| < 1000 | N#Cc1ccc2[nH]cc(NC(=O)Nc3ccc4c(c3)N(Cc3ccccc3)CCS4)c2c1 [Example 109, 1-(4-benzyl-3,4-dihydro-2H-benzo[b][1,4]thiazin-6-yl)-3-(5-cyano-1H-indol-3-yl)urea] |
